The values below come from patent US8999934B2, “Treatment of astrocytes-tumor cells inhibitors of endothelin receptors” (Board of Regents, The University of Texas System, priority 2009, dated 2015).

Structures are written as SMILES. Where “and” joins values, the source holds several entries; their conditions need not be identical. Equal entries are not always repeated.

Data set [1] has as its system human PC14Br4 lung cancer cells. In kind it is cell-based. Particulars: for protection of tumor cells against the drug by co-culture with astrocytes: cultured alone vs with astrocytes, Adriamycin 200 ng/ml, vinblastine 3 ng/ml, vincristine 8 ng/ml, 5-FU 500 ng/ml, cisplatinum 2.4 μg/ml. On the procedure:
(§1) Astrocytes and NIH 3T3 fibroblasts were transfected with GFP genes as previously described (S5, S6). Target tumor cells, astrocytes, or 3T3 fibroblasts were harvested from a 60-70% confluent culture by a brief (2-minute) exposure to 0.25% trypsin in a 0.1% EDTA/PBS solution. The cells were dislodged by tapping the culture flasks briskly and resuspended in CMEM. The murine astrocytes, 3T3 fibroblasts, and tumor cells were plated alone or as co-culture at a tumor cell/astrocyte/3T3 cell ratio of 1:2 onto each of the 35-mm diameter well of the sterile 6-well tissue culture multi-well dish. The cells were allowed to adhere overnight in a humidified 37° C. incubator in an atmosphere of 6.4% carbon dioxide plus air. The cultures were then washed and incubated with fresh CMEM (negative control) or medium containing various concentrations of TAXOL® (Paclitaxel; NDC 0015-3476-30, Bristol-Myers Squibb, Princeton, N.J.) and other chemotherapeutic drugs (see below).
(§2) To determine whether direct contact between tumor cells and astrocytes (or fibroblasts serving as control) was a prerequisite to produce induction of resistance to chemotherapy, we performed the co-culture assay using a Transwell-Boyden chamber, i.e., plating the tumor cells in the chamber and the ImmortoAstrocytes (or fibroblasts) in the well. […]
In the second set of in vitro studies, we determined whether astrocyte-mediated induction of tumor cell resistance to chemotherapeutic drugs is transient or permanent. The human lung cancer PC14Br4 cells were co-cultured with either astrocytes or 3T3 fibroblasts in medium alone or medium containing 5 ng/ml paclitaxel. […] From parallel wells, we harvested surviving tumor cells and re-plated them on different monolayers of astrocytes or 3T3 cells. These co-cultures were of tumor cells first co-cultured with astrocytes and then with either astrocytes or 3T3 cells, or of tumor cells first cultured with 3T3 cells and then with either 3T3 cells or astrocytes. The second round of co-cultures then received media containing 5 ng/ml of paclitaxel. […]
(§3) The supernatant medium containing floating cells were collected from each dish into a 15-ml conical centrifuge tube. The attached cells were harvested by briefly exposing the cells to 0.25% trypsin in a solution containing 0.1% EDTA/PBS. Cells were combined with the corresponding supernatant medium. The samples were pelleted by centrifugation at 100 g for 5 minutes. The pellets were resuspended in 10 ml of HBSS and further pelleted at 100 g for 5 minutes. The samples were resuspended by vortex and the cells fixed in 1 ml of 1% paraformaldehyde for 10 minutes at room temperature. The samples were then transferred into polypropylene microcentrifuge tubes and the fixed cells were washed in 1 ml of PBS and then pelleted at 10,000 g for 1 minute. The pellets were resuspended by vortex and the cells fixed overnight in 1 ml of ethanol at −20° C. The cells were subsequently vortexed and pelleted by a microcentrifuge at 10,000 g for 1 minute. The samples were then vortexed and the pellets resuspended and stained in 300 of propidium iodide (50 μg/ml; Cat. P4864, Sigma) containing RNAse (15 μg/ml; Cat. A7973, Promega, Madison, Wis.) for 20-30 minutes at 37° C.

The test system of data set [2] is MDA231 brain metastases. In words: In vivo tumor cell proliferation, CD31/Ki67 staining of brain slices. On the set-up: species or system nude mice. Conditions: Paclitaxel 8 mg/kg i.p. once per week, ACT-064992 50 mg/kg orally once per day, 28 days. The source says:
Representative brain slices from the four treatment groups were stained for CD31 (endothelial cell marker) and Ki67 (cell proliferation marker). […] FIGS. 20A, B, C and D, respectively.

Data set [3] concerns MDA231 breast cancer brain metastasis. Kind of data set: Survival study, experimental human MDA231 breast cancer brain metastasis. The data set is classed as in vivo, nude mice. Particulars: 5×10^3 MDA231 cells, treatment from day 14, Paclitaxel 5 mg/kg i.p. once weekly, individual mice. The method, then:
5×10^3 MDA231 cells were injected according to the protocol in Experiment 10. Treatment began on day 14 after injection according to the protocol in Experiment 10. A Survival curve is drawn and the p-value derived to compare the statistical significance among treatment groups.
Control (vehicle): daily oral administrations and once weekly i.p. injections.
Paclitaxel (5 mg/kg): daily oral vehicle administrations and once weekly i.p. injection of Paclitaxel.
ACT064992 (10 mg/kg): daily oral ACT064992 administrations and once weekly i.p. injections of Paclitaxel.

In data set [4] the test system is MDA231 brain metastases. In words: In vivo tumor growth of MDA231 brain metastases (brain sections fixed and stained). The arrangement: species or system nude mice. Conditions: Paclitaxel 8 mg/kg i.p. once per week, ACT-064992 50 mg/kg orally once per day, 28 days of treatment. The method, then: To further validate the efficacy of endothelin receptor antagonist therapy for existing brain metastasis, the Inventors performed exemplary in vivo experiments using mice. Nude mice were injected with 10,000 viable MDA231 cells mice by way of the internal carotid artery. […] The Inventors thus started treatments at this time point.
The treatment groups at two weeks post injection were: Control (vehicle) (FIG. […] 18B); ACT-064992 50 mg/kg, p.o. daily (FIG. […] 18D).
All mice were killed on day 28 of treatment. Brain sections were fixed and stained. Brain metastases were evaluated visually. Exemplary specimens are shown in FIG. 18A-D at the same magnifications.

Data set [5] deals with pAKT. Kind of data set: pAKT staining of MDA-MB-231 cells co-cultured with astrocytes and treated with Taxol. The data set is classed as cell-based, human. Conditions: MDA-MB-231 co-cultured with astrocytes; Taxol 15 ng/ml, 24 hours. On the procedure:
In the next set of studies, 10,000 GFP-labeled MDA-MB-231 cells were co-cultured with 20,000 astrocytes in chamber slides. Twenty-four hours later, the cultures were treated for 24 hours with Taxol (15 ng/ml) and then stained for phosphorylated pAKT (4% PFA fixation).

The test system of data set [6] is MDA231 brain metastases. In words: In vivo tumor cell apoptosis, TUNEL of brain slices. On the set-up: species or system nude mice. Conditions: Paclitaxel 8 mg/kg i.p. once per week, ACT-064992 50 mg/kg orally once per day, 28 days. The method, then:
Brain slices of mice from different treatment groups were analyzed by in situ Terminal deoxynucleotidyl transferase dUTP nick end labeling (TUNEL). Negoescu A, et al., J Histochem Cytochem. 1996 September; 44(9):959-68. […] FIG. 21A-C.

The subject of a further data set is ETAR. Kind of data set: ETAR/phosphoserine immunostaining of brain slices. Particulars: Paclitaxel 8 mg/kg i.p. once per week, ACT-064992 50 mg/kg orally once per day, 28 days.
Data set [7] deals with human MDA-MB-231 breast cancer cells. In kind it is cell-based. On the procedure: as §1, §2, §3
In data set [8] the test system is tumor cells co-cultured with astrocytes. Kind of data set: In vitro cell based chemoresistance assay with endothelin receptor antagonists (overall statement). Particulars: higher dose Bosentan.
From the text: Using the in vitro cell based chemoresistance assay scheme described above, the Inventors tested two endothelin receptor antagonists having dual ETAR and ETBR affinity to assess the degree of astrocyte-mediated protection against the cytotoxic effects of the chemotherapy agent.
For another data set, the system named is pMAPK. In words: Expression of survival factor pMAPK in co-cultures of astrocytes and tumor cells. Conditions: ACT-064992 added to co-cultures of astrocytes and tumor cells. In kind it is cell-based. The method, then: (§4) ETR antagonists as shown above were ineffective as a single agent chemotherapy. This negative result made the dramatic effect seen with ETR antagonists as a component of combination therapies highly unexpected. In co-culture experiments, cell culture ratios were 1:2 tumor cell:astrocyte cell (50, 000:100,000), and treatments were using paclitaxel (TAXOL®) (6 ng/ml) and/or ACT-064992 (100 nM) for 48 hours (FIG. 15; *p<0.01). For the control experiments using MDA-MB-231 cells, the same astrocyte-mediated protection from paclitaxel occurred as in prior experiments. There were two surprising results from these combination experiments.

The next data set has as its system ETAR/ETBR. Particulars: requires ⅓ the dose; cited from earlier work.
For data set [9], the system named is pAKT. In words: Expression of survival factor pAKT in co-cultures of astrocytes and tumor cells. Particulars: ACT-064992 added to co-cultures of astrocytes and tumor cells. The data set is classed as cell-based. The method, then: as §4
[10] abbreviates: 100 nM, 48 hours, alone or with astrocytes or with 3T3 fibroblasts.
[11] abbreviates: tumor cell-astrocyte co-cultures 1:2, paclitaxel 6 ng/ml, ACT-064992 100 nM, 48 hours.

As to `CC[C@]1(O)C[C@H]2CN(CCc3c([nH]c4ccccc34)[C@@](C(=O)OC)(c3cc4c(cc3OC)N(C=O)[C@H]3[C@@](O)(C(=O)OC)[C@H](OC(C)=O)[C@]5(CC)C=CCN6CC[C@]43[C@@H]65)C2)C1` [vincristine], the “protection of tumor cells against the drug by co-culture with astrocytes” value (“protection of tumor cells” for short) in [1] (paclitaxel 5 ng/ml) is listed as “significant (P<0.01) protection”.

In the case of `CC(=O)O[C@H]1C(=O)[C@@]2(C)[C@H]([C@H](OC(=O)c3ccccc3)[C@]3(O)C[C@H](OC(=O)[C@H](O)[C@@H](NC(=O)c4ccccc4)c4ccccc4)C(C)=C1C3(C)C)[C@]1(OC(C)=O)CO[C@@H]1C[C@@H]2O` [paclitaxel], the “proliferating (Ki67) cells in brain” value in the data set on MDA231 brain metastases [2] was “a large number of proliferating cells”. Further, in data set [3] (oral vehicle daily), the “Day of death (after treatment)” value was 49 day and 53 day and 60 day and 63 day and 74 day (2×) and 78 day. The “brain metastatic tumors (histology)” value with MDA231 brain metastases [4] is “well defined metastatic tumors”. Besides, in the data set with pAKT [5], the “pAKT expression by tumor cells” value is on record as “high levels of pAKT”. Further, the “apoptotic (TUNEL) cells in brain” value in the data set with MDA231 brain metastases [6] is “few to no apoptotic cells”. Also, the “protection of tumor cells” value in data set [1] (paclitaxel 5 ng/ml) is “significant (P<0.01) protection”. In addition, the “reduction of relative apoptotic index of tumor cells by culturing with astrocytes (increased chemoresistance)” value in data set [1] (paclitaxel 5 ng/ml, 72 hours, co-culture with astrocytes (not 3T3 fibroblasts), mean±S.D., P<0.05) came out at 61.8±6.7%; in [7] (paclitaxel 5 ng/ml, 72 hours, co-culture with astrocytes (not 3T3 fibroblasts), mean±S.D., P<0.01), 58.3 ± 8.9%. Moreover, the “phosphorylation of ETAR in brain” value in the data set with ETAR is “expressed phosphorylated ETAR”.

Consider `COc1cccc2c1C(=O)c1c(O)c3c(c(O)c1C2=O)C[C@@](O)(C(=O)CO)C[C@@H]3O[C@H]1C[C@H](N)[C@H](O)[C@H](C)O1` [Adriamycin], for which the “protection of tumor cells” value in [1] (paclitaxel 5 ng/ml) is given as “significant (P<0.01) protection”.

In the case of `COc1ccccc1Oc1c(NS(=O)(=O)c2ccc(C(C)(C)C)cc2)nc(-c2ncccn2)nc1OCCO` [Bosentan], in data set [8], the “results of Bosentan experiments compared with the ACT-064992 experiments” value is listed as “analogous results”.

Take `O=c1[nH]cc(F)c(=O)[nH]1` [5-FU]: the “protection of tumor cells” value in data set [1] (paclitaxel 5 ng/ml) was “significant (P<0.01) protection”.

Take `N.N.[Cl][Pt][Cl]` [cisplatinum]: the “protection of tumor cells” value in data set [1] (paclitaxel 5 ng/ml) is recorded as “significant (P<0.01) protection”.

Consider `CC[C@]1(O)C[C@@H]2CN(CCc3c([nH]c4ccccc34)[C@@](C(=O)OC)(c3cc4c(cc3OC)N(C)[C@H]3[C@@](O)(C(=O)OC)[C@H](OC(C)=O)[C@]5(CC)C=CCN6CC[C@]43[C@@H]65)C2)C1` [vinblastine], for which the “protection of tumor cells” value in [1] (paclitaxel 5 ng/ml) is “significant (P<0.01) protection”.

Regarding `CCCNS(=O)(=O)Nc1ncnc(OCCOc2ncc(Br)cn2)c1-c1ccc(Br)cc1` [ACT-064992, N-[5-(4-bromophenyl)-6-(2-(5-bromopyrimidin-2-yloxy)ethoxy)-pyrimidin-4-yl]-N′-propylaminosulfonamide], the “expression of survival factor pMAPK” value in the data set on pMAPK is “inhibited the expression”. The “proliferating (Ki67) cells in brain” value with MDA231 brain metastases [2] is “a large number of proliferating cells”. In data set [3] (ACT064992 10 mg/kg oral daily), the “Day of death (after treatment)” value is 51 days and 63 days and 68 days and 75 days and 78 days and 82 days. The “brain metastatic tumors (histology)” value in the data set with MDA231 brain metastases [4] is “well defined metastatic tumors”. Further, in the data set with MDA231 brain metastases [6], the “apoptotic (TUNEL) cells in brain” value is on record as “few to no apoptotic cells”. For the same compound, the “pharmaceutical activity relative to Bosentan” value with ETAR/ETBR is recorded as “roughly three times more pharmaceutically active than Bosentan”. Moreover, the “cytotoxic effects (degree of apoptosis)” value in [1] (setting [10]) was “did not produce any measurable cytotoxic effects”. For the same compound, in the data set on ETAR, the “phosphorylation of ETAR in brain” value was “prevented phosphorylation of the ETAR”. Moreover, the “expression of survival factor pAKT” value with pAKT [9] is “inhibited the expression”. In addition, the “cytotoxic effects (degree of apoptosis)” value in data set [7] (setting [10]) is “did not produce any measurable cytotoxic effects”. In data set [7] (setting [11]), the “effect on astrocyte-mediated protection from paclitaxel” value was “negate the astrocyte-mediated protection from paclitaxel” and the “efficacy of paclitaxel compared to control experiments without astrocytes (super-sensitization)” value is “enhanced the efficacy of paclitaxel”.
